Measurements published in ChEMBL document CHEMBL1148589, “Rationally designed nucleoside antibiotics that inhibit siderophore biosynthesis of Mycobacterium tuberculosis” (J Med Chem, 2006).
Values after ≈ are worked out from the molar mass of the structure shown.

Assays:
P388 = assay: Cytotoxicity against P388 murine leukemia cell line at 100-200 uM; format: functional; conditions: Mus musculus, read-out: ED50 (the source's name)
[1] = tested on: Mycobacterium tuberculosis; assay: Inhibitory activity against Mycobacterium tuberculosis H37Rv; format: functional
[2] = Therapeutic index (ED50/MIC50); format: cell-based; conditions: mouse, P388 cells; read-out: Ratio ED50/MIC50
[3] = Dissociation constant, pKa of the compound; format: physicochemical

| Structure (SMILES) | EC50 (P388) [µg/mL] | MIC50 [1] [µM] | MIC99 [1] [µM] | selectivity ratio [2] | pKa [3] |
| --- | --- | --- | --- | --- | --- |
| Nc1ncnc2c1ncn2[C@@H]1O[C@H](CNS(=O)(=O)NC(=O)c2ccccc2O)[C@@H](O)[C@H]1O | > 100 | 0.077 (≈ 0.0358 µg/mL) | 0.19 (≈ 0.0884 µg/mL) | > 900 |  |
| Nc1ncnc2c1ncn2[C@@H]1O[C@H](COP(=O)(O)CC(=O)c2ccccc2O)[C@@H](O)[C@H]1O | > 100 | > 100 | > 100 |  | 2 |
| Nc1ncnc2c1ncn2[C@@H]1O[C@H](COS(=O)(=O)NC(=O)c2ccccc2)[C@@H](O)[C@H]1O | > 100 | 4.5 (≈ 2.03 µg/mL) | 12.5 (≈ 5.63 µg/mL) |  | 2.8 |
| Nc1ncnc2c1ncn2[C@@H]1O[C@H](COS(=O)(=O)NC(=O)c2ccccc2O)[C@@H](O)[C@H]1O | > 100 | 0.091 (≈ 0.0424 µg/mL) | 0.29 (≈ 0.135 µg/mL) |  |  |
| NNC(=O)c1ccncc1 [ISONIAZID] |  |  | 0.18 (≈ 0.0247 µg/mL) |  |  |
| Nc1ncnc2c1ncn2[C@@H]1O[C@H](COS(=O)(=O)NCc2ccccc2O)[C@@H](O)[C@H]1O | > 100 | > 100 | > 100 |  | 8.5 |
| Nc1ccccc1C(=O)NS(=O)(=O)OC[C@H]1O[C@@H](n2cnc3c(N)ncnc32)[C@H](O)[C@@H]1O | > 100 | 30.9 (≈ 14.4 µg/mL) | > 100 |  |  |
| Nc1ncnc2c1ncn2[C@@H]1O[C@H](Cn2cc(C(=O)c3ccccc3O)nn2)[C@@H](O)[C@H]1O | > 100 | > 100 | > 100 |  |  |
